# Assay results from US9655849B2, “Solid particulate compositions comprising coenzyme Q10” (Particle Dynamics International, LLC, priority 2011, dated 2017).
# Several values for one entry are separate records, joined by “and”; a condition that tells them apart may be missing. Identical values can stand only once.
# Test: CoQ10 Starting Material Particle Size Analysis, laser diffraction, dry dispersion
# Assay type: physicochemical
# Experimental: This example details the results of particle size analysis for a commercially available CoQ10 starting material. Dry samples of KANEKA Q10 powder were analyzed using laser diffraction to obtain a measurement of particle size characteristics.
# Particle size analysis of the CoQ10 starting material was conducted using a dry dispersion method. A […] HELOS equipped with a RODOS dispersion module and a R3 lens was employed for the analysis. Prior to the analysis the sample was evaluated using optical microscopy. Particles were well dispersed and ranged in size from approximately 5 microns to approximately 90 microns.
# [1] = dry powder, Avg. of analyses A-F
# [2] = dry powder, single analyses A-F
smiles,measurement,setting,value
COC1=C(OC)C(=O)C(C/C=C(\C)CC/C=C(\C)CC/C=C(\C)CC/C=C(\C)CC/C=C(\C)CC/C=C(\C)CC/C=C(\C)CC/C=C(\C)CC/C=C(\C)CCC=C(C)C)=C(C)C1=O [KANEKA Q10],"x10, Particulate Size Distribution (Number Basis)",[1],0.55 μm
same,"x10, Particulate Size Distribution (Volume Basis)",[1],4.76 μm
same,"x50, Particulate Size Distribution (Number Basis)",[1],0.77 μm
same,"x50, Particulate Size Distribution (Volume Basis)",[1],15.16 μm
same,"x90, Particulate Size Distribution (Number Basis)",[1],1.30 μm
same,"x90, Particulate Size Distribution (Volume Basis)",[1],40.52 μm
same,"x95, Particulate Size Distribution (Number Basis)",[1],1.78 μm
same,"x95, Particulate Size Distribution (Volume Basis)",[1],50.83 μm
same,"x99, Particulate Size Distribution (Number Basis)",[1],5.11 μm
same,"x99, Particulate Size Distribution (Volume Basis)",[1],71.32 μm
same,"x10, Particulate Size Distribution (Number Basis)",[2],0.55 μm
same,"x10, Particulate Size Distribution (Volume Basis)",[2],4.99 μm and 5.21 μm and 4.63 μm and 4.16 μm and 4.77 μm and 4.80 μm
same,"x50, Particulate Size Distribution (Volume Basis)",[2],15.36 μm and 15.89 μm and 15.04 μm and 14.37 μm and 15.15 μm
same,"x90, Particulate Size Distribution (Volume Basis)",[2],40.65 μm and 41.41 μm and 40.36 μm and 39.46 μm and 40.75 μm and 40.46 μm
same,"x95, Particulate Size Distribution (Number Basis)",[2],1.79 μm and 1.74 μm and 1.77 μm and 1.80 μm and 1.78 μm
same,"x95, Particulate Size Distribution (Volume Basis)",[2],50.84 μm and 51.76 μm and 50.62 μm and 49.96 μm and 51.11 μm and 50.68 μm
same,"x99, Particulate Size Distribution (Number Basis)",[2],5.30 μm and 5.13 μm and 4.98 μm and 4.93 μm and 5.14 μm and 5.20 μm
same,"x99, Particulate Size Distribution (Volume Basis)",[2],71.36 μm and 71.75 μm and 71.16 μm and 70.79 μm and 71.66 μm and 71.20 μm
same,portion of the total volume attributable to particulates greater than 15 μm in diameter,volume basis,more than 50%
